Data from patent publication US6770133B2, “Stable crystal of thiazolidinedione derivative and process for producing the same” (Kyorin Pharmaceutical Co., Ltd., priority 2000, dated 2004).

Key:
[1] = M. Nomura et al, Bioorg. Med. Chem. Lett., 9 (1999) 533-538; cited from earlier work
[2] = Thermal analysis (thermal stability of the crystals); assay type: physicochemical
Description: Using the thermal analysis apparatus (Rigaku Denki; TAS-200), the thermal stability of the crystals were examined.

[3] = Hygroscopicity of the crystals; assay type: physicochemical
[4] = thermal analysis apparatus Rigaku Denki TAS-200

endothermic peak [2, 4] | hygroscopicity [3] | thermal stability compared with the conventional crystal ([2]; conclusion from thermal analysis) | endothermic phenomena observed from (onset) [2, 4] | SMILES | glucose-lowering activity [1]
 |  |  |  | COc1ccc(CC2SC(=O)NC2=O)cc1C(=O)NCc1ccc(C(F)(F)F)cc1 (stereo not drawn) [KRP-297, 5-[(2,4-dioxothiazolidin-5-yl)methyl]-2-methoxy-N-[[4-(trifluoromethyl)phenyl]methyl]benzamide] | very excellent glucose-lowering activity
186.3 °C |  |  |  | COc1ccc(CC2SC(=O)NC2=O)cc1C(=O)NCc1ccc(C(F)(F)F)cc1 (stereo not drawn) [conventional crystals, 5-[(2,4-dioxothiazolidin-5-yl)methyl]-2-methoxy-N-[[4-(trifluoromethyl)phenyl]methyl]benzamide, reference compound] | 
196.2 °C | no hygroscopicity | more thermally stable | 194.8 °C | COc1ccc(CC2SC(=O)NC2=O)cc1C(=O)NCc1ccc(C(F)(F)F)cc1 (stereo not drawn) [novel crystal, 5-[(2,4-dioxothiazolidin-5-yl)methyl]-2-methoxy-N-[[4-(trifluoromethyl)phenyl]methyl]benzamide] | 
